Results: the NIST ThermoML archive (doi:10.1016/j.fluid.2019.02.010)

Assay: xn = mol fraction of the nth substance listed
Details: 101 kPa, Liquid, Vibrating tube method

CCCCCCCC[N+](CCCCCCCC)(CCCCCCCC)CCCCCCCC.[Br-] [tetraoctylammonium bromide] + CCCCCCCCCC(=O)O
x2 = 0.667
Details | mass density [kg/m3]
293 K | 932.9
298 K | 929.6
303 K | 926.3
308 K | 923
313 K | 919.7
318 K | 916.5
323 K | 913.2
328 K | 910

CCN(CC)CC(=O)Nc1c(C)cccc1C [2-(diethylamino)-N-(2,6-dimethylphenyl)acetamide] + Cc1ccc(C(C)C)c(O)c1
x2 = 0.667
Details | mass density [kg/m3]
293 K | 989.1
298 K | 985.4
303 K | 981.6
308 K | 977.9
313 K | 974.2
318 K | 970.4
323 K | 966.6
328 K | 962.9

Cc1ccc(C(C)C)c(O)c1 [3-methyl-6-isopropylphenol] + CCCCCCCCCC(=O)O
x2 = 0.5
Details | mass density [kg/m3]
293 K | 931.8
298 K | 928
303 K | 924.2
308 K | 920.3
313 K | 916.5
318 K | 912.6
323 K | 908.7
328 K | 904.9

CCN(CC)CC(=O)Nc1c(C)cccc1C [2-(diethylamino)-N-(2,6-dimethylphenyl)acetamide] + CCCCCCCCCCCC(=O)O
x2 = 0.667
Details | mass density [kg/m3]
293 K | 949.6
298 K | 945.6
303 K | 941.6
308 K | 937.6
313 K | 933.6
318 K | 929.6
323 K | 925.55
328 K | 921.5

CCN(CC)CC(=O)Nc1c(C)cccc1C [2-(diethylamino)-N-(2,6-dimethylphenyl)acetamide] + CCCCCCCCCC(=O)O
mass density [kg/m3]
Details | 293 K | 298 K | 303 K | 308 K | 313 K | 318 K | 323 K | 328 K
x2 = 0.667 | 960.9 | 956.8 | 952.8 | 948.7 | 944.7 | 940.6 | 936.4 | 932.3
x2 = 0.75 | 952.5 | 948.4 | 944.3 | 940.2 | 936.1 | 931.9 | 927.7 | 923.5
x2 = 0.8 | 944.9 | 940.9 | 936.9 | 932.9 | 928.9 | 924.7 | 920.6 | 916.4

CCCCCCCCCC(=O)O [decanoic acid] + CC(C)[C@@H]1CC[C@@H](C)C[C@H]1O
x1 = 0.5
Details | mass density [kg/m3]
293 K | 901.1
298 K | 897.6
303 K | 894
308 K | 890.4
313 K | 886.7
318 K | 883.1
323 K | 879.4
328 K | 875.7
